In ChEMBL document CHEMBL1201862, “PubChem BioAssay data set” (2004):
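48-hour exposure; five concentrations; linearly interpolated endpoints. At the GI50, growth is halved.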 Activity calls are given as the source filed them. Rule as the data show it: active = GI50 up to about 1.1 µM and inactive = higher.

Legend:
Assay in all cases: DTP human tumour cell line panel, 48 h
SNB-19 = test system: SNB-19
NCI-H522 = test system: NCI-H522
LXFL 529 = test system: LXFL 529
DMS-273 = test system: DMS-273
CCRF-CEM = test system: CCRF-CEM
LOX IMVI = test system: LOX IMVI
SW-620 = test system: SW-620
SK-MEL-2 = test system: SK-MEL-2
KM-20L2 = test system: KM-20L2
HCT-15 = test system: HCT-15
CAKI-1 = test system: CAKI-1
RPMI-8226 = test system: RPMI-8226
OVCAR-8 = test system: OVCAR-8
SK-OV-3 = test system: SK-OV-3
SNB-75 = test system: SNB-75
ACHN = test system: ACHN
Malme-3M = test system: Malme-3M
HT-29 = test system: HT-29
HL-60 = test system: HL-60
DMS-114 = test system: DMS-114
KM12 = test system: KM12
SF-539 = test system: SF-539
MOLT-4 = test system: MOLT-4
SK-MEL-5 = test system: SK-MEL-5
OVCAR-3 = test system: OVCAR-3
NCI-H226 = test system: NCI-H226
HOP-62 = test system: HOP-62
K562 = test system: K562
UACC-257 = test system: UACC-257
A498 = test system: A498
COLO 205 = test system: COLO 205
OVCAR-4 = test system: OVCAR-4
786-0 = test system: 786-0
NCI-H460 = test system: NCI-H460
U-251 = test system: U-251
SR = test system: SR
A549 = test system: A549
OVCAR-5 = test system: OVCAR-5
RXF 393 = test system: RXF 393
M14 = test system: M14
SK-MEL-28 = test system: SK-MEL-28
SNB-78 = test system: SNB-78
SF-295 = test system: SF-295
M19-MEL = test system: M19-MEL
UO-31 = test system: UO-31
UACC-62 = test system: UACC-62
EKVX = test system: EKVX
SN12C = test system: SN12C
NCI-H23 = test system: NCI-H23
HCT-116 = test system: HCT-116
XF498 = test system: XF498
SF-268 = test system: SF-268
TK-10 = test system: TK-10
HOP-92 = test system: HOP-92
DLD-1 = test system: DLD-1
HCC 2998 = test system: HCC 2998
IGROV-1 = test system: IGROV-1

Question: With `CC(=O)OCC(OC(C)=O)C(OC(C)=O)C(OC(C)=O)C(=O)CNn1c(-c2ccccc2)nc2ccc(Br)cc2c1=O` (stereo not given) as the compound, how does the GI50 (SNB-19) read?
Answer: > 100 µM (inactive)

Question: What about the GI50 (NCI-H522) of the same compound?
Answer: 46.8 µM (inactive)

Question: What about the GI50 (LXFL 529) of the same compound?
Answer: > 100 µM (inactive)

Question: And the GI50 (DMS-273)?
Answer: > 100 µM (inactive)

Question: What about the GI50 (CCRF-CEM) of the same compound?
Answer: > 100 µM (inactive)

Question: What about the GI50 (LOX IMVI) of the same compound?
Answer: > 100 µM (inactive)

Question: What about the GI50 (SW-620) of the same compound?
Answer: > 100 µM (inactive)

Question: What about the GI50 (SK-MEL-2) of the same compound?
Answer: > 100 µM (inactive)

Question: What about the GI50 (KM-20L2) of the same compound?
Answer: > 100 µM (inactive)

Question: What about the GI50 (HCT-15) of the same compound?
Answer: > 100 µM

Question: And the GI50 (CAKI-1)?
Answer: 87.5 µM (inactive)

Question: And the GI50 (RPMI-8226)?
Answer: 64.9 µM (inactive)

Question: And the GI50 (OVCAR-8)?
Answer: > 100 µM (inactive)

Question: And the GI50 (SK-OV-3)?
Answer: > 100 µM (inactive)

Question: And the GI50 (SNB-75)?
Answer: > 100 µM (inactive)

Question: And the GI50 (ACHN)?
Answer: > 100 µM (inactive)

Question: What about the GI50 (Malme-3M) of the same compound?
Answer: > 100 µM (inactive)

Question: And the GI50 (HT-29)?
Answer: > 100 µM (inactive)

Question: And the GI50 (HL-60)?
Answer: > 100 µM (inactive)

Question: And the GI50 (DMS-114)?
Answer: > 100 µM (inactive)

Question: And the GI50 (KM12)?
Answer: > 100 µM (inactive)

Question: What about the GI50 (SF-539) of the same compound?
Answer: > 100 µM (inactive)

Question: What about the GI50 (MOLT-4) of the same compound?
Answer: 93.3 µM (inactive)

Question: And the GI50 (SK-MEL-5)?
Answer: > 100 µM (inactive)

Question: What about the GI50 (OVCAR-3) of the same compound?
Answer: > 100 µM (inactive)

Question: What about the GI50 (NCI-H226) of the same compound?
Answer: > 100 µM (inactive)

Question: What about the GI50 (HOP-62) of the same compound?
Answer: > 100 µM (inactive)

Question: And the GI50 (K562)?
Answer: > 100 µM (inactive)

Question: And the GI50 (UACC-257)?
Answer: > 100 µM (inactive)

Question: What about the GI50 (A498) of the same compound?
Answer: > 100 µM (inactive)

Question: What about the GI50 (COLO 205) of the same compound?
Answer: > 100 µM (inactive)

Question: What about the GI50 (OVCAR-4) of the same compound?
Answer: > 100 µM (inactive)

Question: And the GI50 (786-0)?
Answer: > 100 µM (inactive)

Question: And the GI50 (NCI-H460)?
Answer: > 100 µM (inactive)

Question: And the GI50 (U-251)?
Answer: > 100 µM (inactive)

Question: And the GI50 (SR)?
Answer: > 100 µM (inactive)

Question: And the GI50 (A549)?
Answer: > 100 µM (inactive)

Question: What about the GI50 (OVCAR-5) of the same compound?
Answer: > 100 µM (inactive)

Question: What about the GI50 (RXF 393) of the same compound?
Answer: > 100 µM (inactive)

Question: And the GI50 (M14)?
Answer: > 100 µM (inactive)

Question: What about the GI50 (SK-MEL-28) of the same compound?
Answer: > 100 µM (inactive)

Question: And the GI50 (SNB-78)?
Answer: > 100 µM (inactive)

Question: And the GI50 (SF-295)?
Answer: > 100 µM (inactive)

Question: And the GI50 (M19-MEL)?
Answer: > 100 µM (inactive)

Question: And the GI50 (UO-31)?
Answer: > 100 µM (inactive)

Question: And the GI50 (UACC-62)?
Answer: 83.4 µM (inactive)

Question: What about the GI50 (EKVX) of the same compound?
Answer: > 100 µM (inactive)

Question: And the GI50 (SN12C)?
Answer: > 100 µM (inactive)

Question: And the GI50 (NCI-H23)?
Answer: > 100 µM (inactive)

Question: And the GI50 (HCT-116)?
Answer: > 100 µM (inactive)

Question: And the GI50 (XF498)?
Answer: 21.2 µM (inactive)

Question: What about the GI50 (SF-268) of the same compound?
Answer: > 100 µM (inactive)

Question: Which results are given for `COc1ccc(Nc2cnc3cc(N)ccc3n2)cc1OC`?
Answer: GI50 (LXFL 529): 13.2 µM (inactive); GI50 (DMS-273): 56.2 µM (inactive); GI50 (CCRF-CEM): 37.4 µM (inactive); GI50 (LOX IMVI): 37.1 µM (inactive); GI50 (SW-620): > 100 µM (inactive); GI50 (SK-MEL-2): 44.3 µM (inactive); GI50 (TK-10): > 100 µM (inactive); GI50 (KM-20L2): 63.1 µM (inactive); GI50 (HCT-15): > 100 µM; GI50 (RPMI-8226): 23.9 µM (inactive); GI50 (HOP-92): 7.62 µM (inactive); GI50 (OVCAR-8): 37.4 µM (inactive); GI50 (SK-OV-3): > 100 µM (inactive); GI50 (SNB-75): > 100 µM (inactive); GI50 (ACHN): 83.9 µM (inactive); GI50 (Malme-3M): > 100 µM (inactive); GI50 (HT-29): > 100 µM (inactive); GI50 (HL-60): 26.7 µM (inactive); GI50 (DLD-1): > 100 µM (inactive); GI50 (DMS-114): 47 µM (inactive); GI50 (KM12): 70.5 µM (inactive); GI50 (MOLT-4): 36.5 µM (inactive); GI50 (SK-MEL-5): 49.9 µM (inactive); GI50 (OVCAR-3): > 100 µM (inactive); GI50 (NCI-H226): 53.8 µM (inactive); GI50 (HOP-62): 61.1 µM (inactive); GI50 (K562): 46.8 µM (inactive); GI50 (UACC-257): > 100 µM (inactive); GI50 (COLO 205): > 100 µM (inactive); GI50 (NCI-H460): 23.9 µM (inactive); GI50 (U-251): 40.7 µM (inactive); GI50 (SR): 33.7 µM (inactive); GI50 (HCC 2998): 29.2 µM (inactive); GI50 (OVCAR-5): > 100 µM (inactive); GI50 (RXF 393): > 100 µM (inactive); GI50 (M14): > 100 µM (inactive); GI50 (SK-MEL-28): > 100 µM (inactive); GI50 (SF-295): 34.3 µM (inactive); GI50 (M19-MEL): > 100 µM (inactive); GI50 (IGROV-1): > 100 µM (inactive); GI50 (UO-31): > 100 µM (inactive); GI50 (UACC-62): 72.3 µM (inactive); GI50 (EKVX): > 100 µM (inactive); GI50 (SN12C): 39.3 µM (inactive); GI50 (NCI-H23): 26.9 µM (inactive); GI50 (HCT-116): 86.1 µM (inactive); GI50 (XF498): 54.6 µM (inactive); GI50 (SF-268): 74.1 µM (inactive)
